Data taken from PubChem BioAssay (NCI).
Where “and” joins values, the source holds several entries; their conditions need not be identical. Identical values can stand only once.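 48-hour exposure; five concentrations; linearly interpolated endpoints. At the GI50, growth is halved. TGI: concentration producing complete growth inhibition.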

Experiments:
Test in all cases: DTP human tumour cell line panel, 48 h
CCRF-CEM leukemia = system: CCRF-CEM leukemia
HCC-2998 colon = system: HCC-2998 colon
NCI-H23 lung = system: NCI-H23 lung
NCI/ADR-RES ovarian = system: NCI/ADR-RES ovarian
SK-MEL-28 melanoma = system: SK-MEL-28 melanoma
SW-620 colon = system: SW-620 colon
TK-10 renal = system: TK-10 renal
UACC-257 melanoma = system: UACC-257 melanoma
UACC-62 melanoma = system: UACC-62 melanoma
UO-31 renal = system: UO-31 renal

| Structure (SMILES) | GI50 (CCRF-CEM leukemia) | TGI (CCRF-CEM leukemia) | GI50 (HCC-2998 colon) | TGI (HCC-2998 colon) | GI50 (NCI-H23 lung) | TGI (NCI-H23 lung) | GI50 (NCI/ADR-RES ovarian) | TGI (NCI/ADR-RES ovarian) | GI50 (SK-MEL-28 melanoma) | TGI (SK-MEL-28 melanoma) | GI50 (SW-620 colon) | TGI (SW-620 colon) | GI50 (TK-10 renal) | TGI (TK-10 renal) | GI50 (UACC-257 melanoma) | TGI (UACC-257 melanoma) | GI50 (UACC-62 melanoma) | TGI (UACC-62 melanoma) | GI50 (UO-31 renal) | TGI (UO-31 renal) |
| --- | --- | --- | --- | --- | --- | --- | --- | --- | --- | --- | --- | --- | --- | --- | --- | --- | --- | --- | --- | --- |
| c1ccc(COc2ccc(Nc3ncnc4ccc(-c5ccco5)cc34)cc2)cc1 | 7.76 µM | > 25 µM | 10.6 µM | > 25 µM | 5.54 µM | > 17.9 µM | 7.97 µM | > 25 µM | 9.51 µM | > 25 µM | 7.47 µM | 22.7 µM | 3.26 µM | 16.3 µM | 7.85 µM | 24.4 µM | 5.75 µM | 14.3 µM | 4.76 µM | > 22.1 µM |
| COC12c3ccccc3-c3ccccc3C1[C@@H](C(=O)O)[C@H]2C(=O)O (stereo not given in full) | – | > 10 µM | – | > 10 µM | – | > 10 µM | – | > 10 µM | – | > 10 µM | – | > 10 µM | – | > 10 µM | – | > 10 µM | – | – | – | > 10 µM |
| Cn1cc(-c2ccc3c(c2)ncn3-c2ccc(CC(=O)Nc3cc(C(C)(C)C)on3)cc2)cn1 | 3.23 µM | > 100 µM | 8.04 µM | > 100 µM | 1.88 µM | 17.2 µM | 2.23 µM | > 35.1 µM | 2.65 µM | > 100 µM | 2.44 µM | > 100 µM | 0.671 µM | 3.17 µM | 3.18 µM | 53.7 µM | 1.53 µM | 11.6 µM | 0.224 µM | 2.2 µM |
| NCCCNCCCNc1nc2ccccc2c2[nH]c3ccccc3c12 | 0.126 µM | 2.42 µM | 0.109 µM | 0.733 µM | 0.0936 µM | 1.06 µM | 0.645 µM and 0.621 µM | > 100 µM | 0.464 µM | 2.1 µM | 0.19 µM | 1.64 µM | 1.1 µM | 3.68 µM | 2.31 µM | 6.2 µM | 0.327 µM | 1.73 µM | 0.309 µM | 3.17 µM |
| CCN(CC)c1ccc(/C=C/C2=[N+](C)c3ccccc3C2(C)C)cc1 | 0.183 µM | > 100 µM | 0.547 µM | 18.6 µM | 0.181 µM | 25.8 µM | 13.9 µM | > 100 µM | 0.61 µM | 9.48 µM | 0.36 µM | 19.4 µM | 0.373 µM | 10.6 µM | 0.375 µM | 14.6 µM | 0.435 µM | 14.9 µM | 3.26 µM | 18.1 µM |
| S=c1nc(/C=C/c2ccc(Cl)c(Cl)c2)[nH][nH]1 | – | > 100 µM | – | > 100 µM | – | > 100 µM | > 100 µM | > 100 µM | – | > 100 µM | – | > 100 µM | – | > 100 µM | – | > 100 µM | – | > 100 µM | – | > 100 µM |
| CC1(C)CCC(CN2CCN(c3ccc(C(=O)NS(=O)(=O)c4ccc(NCC5CCOCC5)c([N+](=O)[O-])c4)c(Oc4cnc5[nH]ccc5c4)c3)CC2)=C(c2ccc(Cl)cc2)C1 | 2.32 µM | 7.29 µM | 2.1 µM | 3.92 µM | 3.13 µM | 12.5 µM | 5 µM | 27.3 µM | 1.41 µM | 6.79 µM | 3.95 µM | 16.8 µM | 2.26 µM | 6.34 µM | 1.98 µM | 4.94 µM | 0.782 µM | 2.16 µM | 2.57 µM | 8.26 µM |
| COc1ccc2c(c1)C(=O)/C(=C/c1ccc(OCC(=O)c3ccc(Cl)cc3)cc1)O2 | 1.92 µM | 4.75 µM | – | – | 11.6 µM | 31.7 µM | 16.3 µM | 41.8 µM | 15.5 µM | 30.1 µM | 3.48 µM | 10.6 µM | 26.5 µM | 43.4 µM | > 100 µM | > 100 µM | 17.5 µM | > 100 µM | 10.4 µM | 25.6 µM |
| COc1cc2c(c(Br)c1N)-c1cc(Br)c(N)cc1C2=O | > 100 µM | > 100 µM | 4.97 µM | > 100 µM | 4.3 µM | > 100 µM | 5.31 µM | > 100 µM | > 100 µM | > 100 µM | > 100 µM | > 100 µM | 0.354 µM | > 100 µM | > 100 µM | > 100 µM | > 100 µM | > 100 µM | > 100 µM | > 100 µM |
| CCOC(=O)c1c(-c2ccccc2)[nH]c2ccccc2c1=O | – | – | – | > 100 µM | – | > 100 µM | – | > 100 µM | – | > 100 µM | – | > 100 µM | – | > 100 µM | – | > 100 µM | – | – | – | > 100 µM |
| O=C(O)Cc1ccccc1 | > 1000 µM | > 2000 µM | > 1000 µM | > 2000 µM | > 1000 µM | > 2000 µM | > 1000 µM | > 2000 µM | > 1000 µM | > 2000 µM | > 1000 µM | > 2000 µM | > 1000 µM | > 2000 µM | > 1000 µM | > 2000 µM | > 1000 µM | > 2000 µM | – | > 2000 µM |
| Cn1cccc1C1CC(=O)N(CCC[Se]C#N)C1=O (stereo not given) | 2.22 µM | 7.66 µM | 2.96 µM | 10.1 µM | 2.6 µM | 7.88 µM | 2.69 µM | 7.85 µM | 2.24 µM | 5.96 µM | 3.26 µM | 11.8 µM | 1.79 µM | 4.06 µM | 1.95 µM | 4.73 µM | 1.87 µM | 3.91 µM | 1.57 µM | 3.29 µM |
| O=C(Nc1ccc(Cl)cc1)C(=O)C1=C(O)c2ccccc2OC1 | – | > 100 µM | – | > 100 µM | – | > 100 µM | – | > 100 µM | – | > 100 µM | – | > 100 µM | – | > 100 µM | – | > 100 µM | – | > 100 µM | – | > 100 µM |
| CC[C@]12C=CCN3CC[C@]4(C(=C(C(=O)OC)C1)Nc1ccccc14)[C@@H]32 | 2.73 µM | > 100 µM | 11.4 µM | 24.9 µM | 4.37 µM | 17.7 µM | 6.39 µM | 58.1 µM | 4.49 µM | 17.9 µM | 3.18 µM | 12.3 µM | 4.86 µM | 17.6 µM | 5.06 µM | 26.5 µM | 2.89 µM | 12 µM | 4.11 µM | 16.5 µM |
